Key:
Zucker fatty rats = experiment: OGTT in Zucker fatty rats, SEQID-00105 vs alogliptin vs combination (glucose 2 g/kg); type: in vivo, rat
Experimental: In another experiment, an OGTT was performed in 24, fasted, male Zucker fatty rats with indwelling jugular vein catheters (JVC) to assess the acute effects of nutritive protein dosing on glycemic control as well as insulin and GLP-1 levels. The capacity of SEQID-00105 to improve glucose control was tested by comparing the blood glucose excursion of SEQID-00105 to alogliptin to SEQID-00105+alogliptin to vehicle in the context of an oral glucose tolerance test. All rodents were approximately 10-11 weeks old, weighed average of approximately 430 g and acclimated for 4-5 days prior to testing. Prior to treatment, all rats were fasted overnight for fourteen hours. […] N=6 rats per treatment group. The error bars shown are the standard errors of the mean. Each group was compared post hoc on GraphPad Prism 6, two-way ANOVA, Dunnett's multiple comparisons test first comparing within each group to the fasting glucose concentration, followed by a comparison of each time point to vehicle. […] The integrated area under curve (AUC) was calculated on Microsoft Excel using the Linear-Log Trapezoidal Method and two-way ANOVA and Dunnett's multiple comparisons tests was conducted on GraphPad Prism 6.03.

healthy subjects = conditions: oral supplementation vs. control; cited from earlier work
burn injury = conditions: 0.35 g/kg, cited from earlier work
5-HT production = conditions: oral intake of free Tryptophan; cited from earlier work
[1] = test system: mTORC1 (phosphorylation of ribosomal protein S6, rps6); experiment: AlphaScreen SureFire Ribosomal Protein S6 assay in primary rat skeletal muscle cells; type: cell-based
Source text: Primary Rat Skeletal Muscle Cell (RSKMC) culture medium was purchased from Cell Applications (Catalog number: R150-500, San Diego, CA). Starvation medium DMEM/F12 was bought from Sigma (Catalog number: D9785, St. Louis, MO). […] Fetal bovine serum (FBS) and other growth factors were obtained from Cell Applications (Catalog number: R151-GS, San Diego, CA). Tissue culture flasks and clear bottom 96-well tissue culture plates were purchased from Corning Incorporated (Catalog number: 430641 and 353072, respectively, Corning, NY). Trypsin/EDTA was obtained from Life Technology (Catalog number: 25200, Grand Island, NY). DPBS and HBSS were also purchased from Life Technologies (Catalog number: 14190, 14175, respectively). AlphaScreen® SureFire® Ribosomal Protein S6 Assay Kits was obtained from Perkin Elmer (Catalog number: TGRS6P2S10K).
Primary Rat Skeletal Muscle Cell (RSKMC) culture. RSKMC were isolated using protocol described herein and cryopreserved in liquid nitrogen. The cells were also maintained in RSKMC medium (Cell Applications) in T75 tissue flask in a 37° C., 5% CO2 tissue culture incubator (Model 3110, Thermo Fisher Scientific). The cells were split every three day when they reached ˜90% confluency. RSKMC cells were cultured in RSKMC medium in T75 tissue flask to 100% confluency. The culture medium was aspirated from the culture flask and rinsed once with 10 ml of DPBS, and then 1.5 ml of 0.25% trypsin/EDTA was added to the cells. After the cells were detached from the flask, 10 ml of culture medium were added. The medium was pipetted up and down with a 10 ml pipet to detach the cells from the flask. The cells were then seeded into clear bottom 96-well tissue culture plates at a density of 50,000 cells per well. Following overnight culture in a 37° C., 5% CO2 incubator, the cells were starved over a period of 4 hours with starvation DME/F12 medium without FBS and leucine in a 37° C., 5% CO2 tissue culture incubator, then starved for another hour incubation with Hank's Buffered Salt Solution (HBSS). […]

[2] = Intact half-life during simulated gastric fluid (SGF) digestion; conditions: SGF pH 1.5, pepsin:polypeptide 1:20 w/w, 37° C.; produced in E. coli unless otherwise noted
[3] = Thermostability, ProteoStat Thermal Shift Stability Kit, temperature of aggregation; type: physicochemical; conditions: pH 7.1; heated from 25° C. to 95° C.
Experimental: Thermostability. The thermostability of proteins in a buffer cocktail of Citric Acid and Dibasic Sodium Phosphate over a pH range of 2.8 to 7.1 (preparation described above in Table E31B) was determined using the ProteoStat® Thermal Shift Stability Kit (Enzo Life Sciences) according to the manufacturer's standard protocol. Briefly, protein solutions (˜10 mg/ml) containing 1× ProteoStat TS Detection Reagent were heated from 25° C. to 95° C. at a rate of 0.5° C. per 30 sec using a real-time PCR (rtPCR) thermocycler (BioRad) equipped with a plate reader (SynergyMx, Biotek) while monitoring the fluorescence with a Texas Red filter.

## Cn1c(=O)cc(N2CCC[C@@H](N)C2)n(Cc2ccccc2C#N)c1=O [Alogliptin]
Zucker fatty rats; 0 to 120 minutes, P=0.0051
  glucose AUC vs vehicle: significantly less than vehicle
Zucker fatty rats; 0 to 240 minutes, P=0.0054
  glucose AUC vs vehicle: significantly less than vehicle
Zucker fatty rats; 30 minutes following glucose challenge
  blood glucose vs vehicle: significantly lower blood glucose than vehicle
Zucker fatty rats; 60 minutes following glucose challenge
  blood glucose vs vehicle: significantly lower than vehicle

## N=C(N)NCCC[C@H](N)C(=O)O [Arginine]
Healthy subjects
  increase in collagen deposition at wound sites: 2.4 ×

## NC(=O)CC[C@H](N)C(=O)O [Glutamine]
Burn injury; after 3 days, vs 5.5× decrease
  decrease in Lactulose/mannitol ratio: 8.8 ×
Burn injury
  reduction in hospital stay: 6 days

## N[C@@H](Cc1c[nH]c2ccccc12)C(=O)O [Tryptophan]
5-HT production
  increase of 5-HT production: 2 fold

## CC(C)C[C@H](N)C(=O)O [leucine]
[1]; primary RSkMC, complete amino acid medium and minimal 12 amino acid mixture
  phosphorylation of rps6: stimulates phosphorylation of rps6 in primary RSkMC in a dose-dependent manner
[1]; primary RSkMC, different Leucine concentrations
  phosphorylation of rps6 (relative alphascreen signal): stimulates phorphorylation of rps6 in primary RSkMC in a dose-dependent manner
[1]; primary cells from Soleus, gastrocnemius and extensor digitorum longus
  mTOR RPS6 pathway stimulation: stimulates mTOR RPS6 pathway using isolated primary cells in a dose dependent manner

## SEQID-00143: nutritive polypeptide (LYLEEVSKNLVEINPLKLEVKAKPWFVYTPMHGVGFDIFSTIVKKTLCLVEGK; listed as Saccharomyces cerevisiae)
[2]
  SGF Half-life (t½): 18 s

## SEQID-00212: nutritive polypeptide (LEEAKKKLLKDVEVLSQRLEEKALAYDKLEKTKTRLQQELDDLLVDLDHQ; listed as Bos taurus)
[2]
  SGF Half-life (t½): 18 s

## SEQID-00215: nutritive polypeptide (KKLLKDVEVLSQRLEEKALAYDKLEKTKTRLQQELDDLLVDLDHQRQIVSNLEKK; listed as Bos taurus)
[2]
  SGF Half-life (t½): 120 s

## SEQID-00218: nutritive polypeptide (GTIENLEEAKKKLLKDVEVLSQRLEEKALAYDKLEKTKTRLQQELDDLLVDLDHQ; listed as Bos taurus)
[2]
  SGF Half-life (t½): 360 s

## SEQID-00237: nutritive polypeptide (EEDKVNTLTKAKTKLEQQVDDLEGSLEQEKKLRMDLERAKRKLEGDLKLA; listed as Bos taurus)
[3]
  Tagg (pH 7.1): 45
[2]
  SGF Half-life (t½): 36 s
